From ChEMBL document CHEMBL1201861, “Genomics of Drug Sensitity in Cancer screening data, Wellcome Trust Sanger Institute”
Values belong to the compound of their own block, whether it stands above or below them.

Tests used:
Assay in all cases: cells
CP50-MEL-B = assay type: functional, cell-based, Homo sapiens; conditions: Homo sapiens, CP50-MEL-B;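 note: growth inhibition of the human cell line, measured with a cell viability read-out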
Description: SANGER: Inhibition of human CP50-MEL-B cell growth in a cell viability assay.

D-392MG = assay type: functional, cell-based, Homo sapiens; conditions: Homo sapiens, D-392MG
ES7 = assay type: functional, cell-based, Homo sapiens; conditions: Homo sapiens, ES7;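 note: growth inhibition of cultured human ES7 cells, read out as cell viability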
Description: SANGER: Inhibition of human ES7 cell growth in a cell viability assay.

HCE-4 = assay type: functional, cell-based, Homo sapiens; conditions: Homo sapiens, HCE-4;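 note: cell viability assay measuring inhibition of growth in the human HCE-4 cell line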
Description: SANGER: Inhibition of human HCE-4 cell growth in a cell viability assay.

HuP-T4 = assay type: functional, cell-based, Homo sapiens; conditions: Homo sapiens, HuP-T4;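 note: cell viability assay measuring how much HuP-T4 cell growth is inhibited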
Description: SANGER: Inhibition of human HuP-T4 cell growth in a cell viability assay.

KALS-1 = assay type: functional, cell-based, Homo sapiens; conditions: Homo sapiens, KALS-1;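 note: growth inhibition of KALS-1 cells, determined with a cell viability assay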
Description: SANGER: Inhibition of human KALS-1 cell growth in a cell viability assay.

KINGS-1 = assay type: functional, cell-based, Homo sapiens; conditions: Homo sapiens, KINGS-1;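 note: cell viability assay measuring suppression of KINGS-1 cell growth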
Description: SANGER: Inhibition of human KINGS-1 cell growth in a cell viability assay.

KYSE-270 = assay type: functional, cell-based, Homo sapiens; conditions: Homo sapiens, KYSE-270;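 note: cell growth inhibition measured with a viability assay in the human KYSE-270 line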
Description: SANGER: Inhibition of human KYSE-270 cell growth in a cell viability assay.

LB1047-RCC = assay type: functional, cell-based, Homo sapiens; conditions: Homo sapiens, LB1047-RCC;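 note: inhibition of cell growth, determined with a cell viability assay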
Description: SANGER: Inhibition of human LB1047-RCC cell growth in a cell viability assay.

LB771-HNC = assay type: functional, cell-based, Homo sapiens; conditions: Homo sapiens, LB771-HNC;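 note: growth inhibition of LB771-HNC human cells, read out with a cell viability assay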
Description: SANGER: Inhibition of human LB771-HNC cell growth in a cell viability assay.

M14 = assay type: functional, cell-based, Homo sapiens; conditions: Homo sapiens, M14;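 note: growth inhibition of M14 cells, read out with a cell viability assay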
Description: SANGER: Inhibition of human M14 cell growth in a cell viability assay.

MG-63 = assay type: functional, cell-based, Homo sapiens; conditions: Homo sapiens, MG-63;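 note: growth inhibition of human MG-63 cells, read out with a cell viability assay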
Description: SANGER: Inhibition of human MG-63 cell growth in a cell viability assay.

NB7 = assay type: functional, cell-based, Homo sapiens; conditions: Homo sapiens, NB7;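 note: growth inhibition of NB7 cells, read out with a cell viability assay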
Description: SANGER: Inhibition of human NB7 cell growth in a cell viability assay.

NCI-H1623 = assay type: functional, cell-based, Homo sapiens; conditions: Homo sapiens, NCI-H1623;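 note: cell viability assay used as the read-out for growth inhibition of NCI-H1623 cells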
Description: SANGER: Inhibition of human NCI-H1623 cell growth in a cell viability assay.

NCI-H2122 = assay type: functional, cell-based, Homo sapiens; conditions: Homo sapiens, NCI-H2122;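 note: growth inhibition of the cells, read out with a cell viability assay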
Description: SANGER: Inhibition of human NCI-H2122 cell growth in a cell viability assay.

NCI-H2170 = assay type: functional, cell-based, Homo sapiens; conditions: Homo sapiens, NCI-H2170;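 note: cell viability assay measuring growth inhibition of human NCI-H2170 cancer cells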
Description: SANGER: Inhibition of human NCI-H2170 cell growth in a cell viability assay.

NCI-H358 = assay type: functional, cell-based, Homo sapiens; conditions: Homo sapiens, NCI-H358;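 note: growth inhibition of NCI-H358 human cells, read out with a cell viability assay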
Description: SANGER: Inhibition of human NCI-H358 cell growth in a cell viability assay.

NCI-H441 = assay type: functional, cell-based, Homo sapiens; conditions: Homo sapiens, NCI-H441;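 note: growth inhibition of NCI-H441 cells, read out with a cell viability assay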
Description: SANGER: Inhibition of human NCI-H441 cell growth in a cell viability assay.

RVH-421 = assay type: functional, cell-based, Homo sapiens; conditions: Homo sapiens, RVH-421
Description: SANGER: Inhibition of human RVH-421 cell growth in a cell viability assay.

SK-HEP1 = assay type: functional, cell-based, Homo sapiens, SK-HEP-1; conditions: Homo sapiens, SK-HEP1;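 note: cell viability readout used to quantify reduction in proliferation of human SK-HEP-1 cells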
Description: SANGER: Inhibition of human SK-HEP-1 cell growth in a cell viability assay.

SK-MEL-30 = assay type: functional, cell-based, Homo sapiens; conditions: Homo sapiens, SK-MEL-30;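 note: growth inhibition of SK-MEL-30 cells, determined with a cell viability assay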
Description: SANGER: Inhibition of human SK-MEL-30 cell growth in a cell viability assay.

SK-N-DZ = assay type: functional, cell-based, Homo sapiens; conditions: Homo sapiens, SK-N-DZ;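 note: growth inhibition of the cancer cell line, read out through a viability assay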
Description: SANGER: Inhibition of human SK-N-DZ cell growth in a cell viability assay.

SNU-423 = assay type: functional, cell-based, Homo sapiens; conditions: Homo sapiens, SNU-423
Description: SANGER: Inhibition of human SNU-423 cell growth in a cell viability assay.

SW1463 = assay type: functional, cell-based, Homo sapiens; conditions: Homo sapiens, SW1463;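 note: growth inhibition of SW1463 cells, determined with a cell viability assay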
Description: SANGER: Inhibition of human SW1463 cell growth in a cell viability assay.

A204 = assay type: functional, cell-based, Homo sapiens; conditions: Homo sapiens, A204;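 note: growth inhibition of human A204 cells, read out with a cell viability assay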
Description: SANGER: Inhibition of human A204 cell growth in a cell viability assay.

A549 = assay type: functional, cell-based, Homo sapiens; conditions: Homo sapiens, A549;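 note: growth inhibition of A549 cells, read out with a cell viability assay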
Description: SANGER: Inhibition of human A549 cell growth in a cell viability assay.

ACHN = assay type: functional, cell-based, Homo sapiens; conditions: Homo sapiens, ACHN;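 note: cell viability read-out used to gauge how strongly growth of human ACHN cells is suppressed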
Description: SANGER: Inhibition of human ACHN cell growth in a cell viability assay.

BCPAP = assay type: functional, cell-based, Homo sapiens; conditions: Homo sapiens, BCPAP;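 note: growth inhibition of BCPAP cells, read out in a cell viability assay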
Description: SANGER: Inhibition of human BCPAP cell growth in a cell viability assay.

BFTC-909 = assay type: functional, cell-based, Homo sapiens; conditions: Homo sapiens, BFTC-909
Description: SANGER: Inhibition of human BFTC-909 cell growth in a cell viability assay.

CAL-33 = assay type: functional, cell-based, Homo sapiens; conditions: Homo sapiens, CAL-33;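 note: growth inhibition of CAL-33 cells, read out with a cell viability assay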
Description: SANGER: Inhibition of human CAL-33 cell growth in a cell viability assay.

UACC-62 = assay type: functional, cell-based, Homo sapiens; conditions: Homo sapiens, UACC-62;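 note: growth inhibition of human UACC-62 cells, read out by a cell viability assay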
Description: SANGER: Inhibition of human UACC-62 cell growth in a cell viability assay.

COLO-678 = assay type: functional, cell-based, Homo sapiens; conditions: Homo sapiens, COLO-678
Description: SANGER: Inhibition of human COLO-678 cell growth in a cell viability assay.

EW-13 = assay type: functional, cell-based, Homo sapiens; conditions: Homo sapiens, EW-13;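 note: growth inhibition of EW-13 cells, read out with a cell viability assay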
Description: SANGER: Inhibition of human EW-13 cell growth in a cell viability assay.

KG-1 = assay type: functional, cell-based, Homo sapiens; conditions: Homo sapiens, KG-1;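 note: growth inhibition of KG-1 cells, read out by a cell viability assay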
Description: SANGER: Inhibition of human KG-1 cell growth in a cell viability assay.

L-363 = assay type: functional, cell-based, Homo sapiens; conditions: Homo sapiens, L-363
Description: SANGER: Inhibition of human L-363 cell growth in a cell viability assay.

MC116 = assay type: functional, cell-based, Homo sapiens; conditions: Homo sapiens, MC116;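 note: growth inhibition of MC116 cells, read out with a cell viability assay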
Description: SANGER: Inhibition of human MC116 cell growth in a cell viability assay.

SNU-5 = assay type: functional, cell-based, Homo sapiens; conditions: Homo sapiens, SNU-5;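 note: cell viability readout used to measure growth inhibition in human NCI-SNU-5 cells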
Description: SANGER: Inhibition of human NCI-SNU-5 cell growth in a cell viability assay.

P12-Ichikawa = assay type: functional, cell-based, Homo sapiens; conditions: Homo sapiens, P12-Ichikawa
SK-PN-DW = assay type: functional, cell-based, Homo sapiens; conditions: Homo sapiens, SK-PN-DW;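 note: growth inhibition measured with a viability assay on these cells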
Description: SANGER: Inhibition of human SK-PN-DW cell growth in a cell viability assay.

SNB-75 = assay type: functional, cell-based, Homo sapiens; conditions: Homo sapiens, SNB-75;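 note: cell viability assay measuring growth inhibition of human SNB-75 cells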
Description: SANGER: Inhibition of human SNB75 cell growth in a cell viability assay.

C8166 = assay type: functional, cell-based, Homo sapiens; conditions: Homo sapiens, C8166;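 note: growth inhibition of human C8166 cells measured by a cell viability assay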
Description: SANGER: Inhibition of human C8166 cell growth in a cell viability assay.

IC50 (CP50-MEL-B): 0.0696 µM
IC50 (D-392MG): 1.42 µM
IC50 (ES7): 0.27 µM
IC50 (HCE-4): 0.469 µM
IC50 (HuP-T4): 0.543 µM
IC50 (KALS-1): 0.253 µM
IC50 (KINGS-1): 2.75 µM
IC50 (KYSE-270): 1.08 µM
IC50 (LB1047-RCC): 0.319 µM
IC50 (LB771-HNC): 0.166 µM
IC50 (M14): 2.83 µM
IC50 (MG-63): 0.112 µM
IC50 (NB7): 0.0293 µM
IC50 (NCI-H1623): 0.595 µM
IC50 (NCI-H2122): 0.538 µM
IC50 (NCI-H2170): 1 µM
IC50 (NCI-H358): 1.49 µM
IC50 (NCI-H441): 1.73 µM
IC50 (RVH-421): 0.253 µM
IC50 (SK-HEP1): 1.51 µM
IC50 (SK-MEL-30): 0.038 µM
IC50 (SK-N-DZ): 0.207 µM
IC50 (SNU-423): 0.325 µM
IC50 (SW1463): 64.8 µM
IC50 (A204): 0.0978 µM
IC50 (A549): 0.0141 µM
IC50 (ACHN): 0.149 µM
IC50 (BCPAP): 0.242 µM
IC50 (BFTC-909): 0.258 µM
IC50 (CAL-33): 0.817 µM
IC50 (UACC-62): 0.0344 µM
IC50 (COLO-678): 3.31 µM
Structure (SMILES): CC(C)c1ccccc1Cc1cc(C(=O)Nc2ccc(S(=O)(=O)c3ccccc3C(C)(C)C)cc2)c(O)c(O)c1O

Structure (SMILES): CC(C)CCN1c2nc(Nc3cc(F)c(O)c(F)c3)ncc2N(C)C(=O)C1C (configuration not stated)
IC50 (CP50-MEL-B): > 5 µM
IC50 (D-392MG): > 5 µM
IC50 (ES7): 0.916 µM
IC50 (EW-13): > 5 µM
IC50 (HCE-4): > 5 µM
IC50 (HuP-T4): > 5 µM
IC50 (KALS-1): > 5 µM
IC50 (KG-1): 3.61 µM
IC50 (KINGS-1): > 5 µM
IC50 (KYSE-270): > 5 µM
IC50 (L-363): > 5 µM
IC50 (LB1047-RCC): 4.1 µM
IC50 (LB771-HNC): > 5 µM
IC50 (M14): > 5 µM
IC50 (MC116): > 5 µM
IC50 (MG-63): > 5 µM
IC50 (NB7): > 5 µM
IC50 (NCI-H1623): > 5 µM
IC50 (NCI-H2122): > 5 µM
IC50 (NCI-H2170): > 5 µM
IC50 (NCI-H358): > 5 µM
IC50 (NCI-H441): > 5 µM
IC50 (SNU-5): > 5 µM
IC50 (P12-Ichikawa): 2.53 µM
IC50 (RVH-421): > 5 µM
IC50 (SK-HEP1): > 5 µM
IC50 (SK-MEL-30): > 5 µM
IC50 (SK-N-DZ): > 5 µM
IC50 (SK-PN-DW): > 5 µM
IC50 (SNB-75): > 5 µM
IC50 (SNU-423): > 5 µM
IC50 (SW1463): > 5 µM
IC50 (A204): > 5 µM
IC50 (A549): 1.31 µM
IC50 (ACHN): > 5 µM
IC50 (BCPAP): > 5 µM
IC50 (BFTC-909): > 5 µM
IC50 (C8166): > 5 µM
IC50 (CAL-33): 3.53 µM
IC50 (UACC-62): > 5 µM
IC50 (COLO-678): > 5 µM

Structure (SMILES): CN(C)C(=N)NC(=N)N [METFORMIN]
IC50 (CP50-MEL-B): > 20000 µM
IC50 (D-392MG): > 20000 µM
IC50 (ES7): > 20000 µM
IC50 (HCE-4): 11000 µM
IC50 (KG-1): 16800 µM
IC50 (KINGS-1): > 20000 µM
IC50 (KYSE-270): > 20000 µM
IC50 (L-363): 6740 µM
IC50 (LB1047-RCC): 16400 µM
IC50 (LB771-HNC): > 20000 µM
IC50 (M14): > 20000 µM
IC50 (MC116): > 20000 µM
IC50 (MG-63): 14000 µM
IC50 (NCI-H2122): > 20000 µM
IC50 (NCI-H441): > 20000 µM
IC50 (SNU-5): 3700 µM
IC50 (P12-Ichikawa): 12400 µM
IC50 (SK-HEP1): > 20000 µM
IC50 (SK-MEL-30): > 20000 µM
IC50 (SK-N-DZ): 13300 µM
IC50 (SNB-75): > 20000 µM
IC50 (SNU-423): > 20000 µM
IC50 (SW1463): > 20000 µM
IC50 (A549): 4540 µM
IC50 (ACHN): > 20000 µM
IC50 (BCPAP): > 20000 µM
IC50 (BFTC-909): > 20000 µM
IC50 (CAL-33): > 20000 µM
IC50 (COLO-678): > 20000 µM
